Experimental data taken from PubChem BioAssay AID248 (DTP/NCI, 2004).
“And” between values parts separate entries of the source, which are not always exact repeats. Equal entries are not always repeated. Inconclusive results and toxic doses are left out. Peptide text beside a SMILES is read from it.

Test system: L1210 leukemia ip in BDF1 mice, survival T/C
Assay: NCI In Vivo Anticancer Drug Screen. Data for tumor model L1210 Leukemia (intraperitoneal) in B6D2F1 (BDF1) mice
Conditions: endpoint: mean survival time, higher = longer survival
How it was run: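 Mice bearing the transplanted tumor received compound or vehicle. Survival of the treated group was divided by that of the vehicle-treated control group to give the ratio.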

[1] = dose: 100.0 mg/kg/injection, schedule: Q01DX009 (ip), vehicle: saline with Tween-80
[2] = dose: 100.0 mg/kg/injection, schedule: Q04DX003 (ip), vehicle: saline with Tween-80
[3] = dose: 200.0 mg/kg/injection, schedule: Q01DX009 (ip), vehicle: saline with Tween-80
[4] = dose: 200.0 mg/kg/injection, schedule: Q04DX003 (ip), vehicle: saline with Tween-80
[5] = dose: 400.0 mg/kg/injection, schedule: Q04DX003 (ip), vehicle: saline with Tween-80
[6] = dose: 100.0 mg/kg/injection, schedule: Q01DX009 (ip), vehicle: Klucel (hydroxypropylcellulose) (HPC)
[7] = dose: 100.0 mg/kg/injection, schedule: Q04DX003 (ip), vehicle: Klucel (hydroxypropylcellulose) (HPC)
[8] = dose: 200.0 mg/kg/injection, schedule: Q01DX009 (ip), vehicle: Klucel (hydroxypropylcellulose) (HPC)
[9] = dose: 200.0 mg/kg/injection, schedule: Q04DX003 (ip), vehicle: Klucel (hydroxypropylcellulose) (HPC)
[10] = dose: 400.0 mg/kg/injection, schedule: Q04DX003 (ip), vehicle: Klucel (hydroxypropylcellulose) (HPC)
[11] = dose: 50.0 mg/kg/injection, schedule: Q01DX009 (ip), vehicle: Klucel (hydroxypropylcellulose) (HPC)
[12] = dose: 400.0 mg/kg/injection, schedule: Q01DX009 (ip), vehicle: saline with Tween-80
[13] = dose: 50.0 mg/kg/injection, schedule: Q01DX001 (ip), vehicle: carboxymethylcellulose (CMC)
[14] = dose: 100.0 mg/kg/injection, schedule: Q01DX001 (ip), vehicle: carboxymethylcellulose (CMC)
[15] = dose: 200.0 mg/kg/injection, schedule: Q01DX001 (ip), vehicle: carboxymethylcellulose (CMC)
[16] = dose: 400.0 mg/kg/injection, schedule: Q01DX001 (ip), vehicle: carboxymethylcellulose (CMC)
[17] = dose: 100.0 mg/kg/injection, schedule: Q01DX001 (ip), vehicle: Klucel (hydroxypropylcellulose) (HPC)
[18] = dose: 200.0 mg/kg/injection, schedule: Q01DX001 (ip), vehicle: Klucel (hydroxypropylcellulose) (HPC)
[19] = dose: 100.0 mg/kg/injection, schedule: Q01DX001 (ip), vehicle: saline
[20] = dose: 200.0 mg/kg/injection, schedule: Q01DX001 (ip), vehicle: saline
[21] = dose: 400.0 mg/kg/injection, schedule: Q01DX001 (ip), vehicle: saline
[22] = dose: 100.0 mg/kg/injection, schedule: Q04DX003 (ip), vehicle: saline
[23] = dose: 200.0 mg/kg/injection, schedule: Q04DX003 (ip), vehicle: saline
[24] = dose: 400.0 mg/kg/injection, schedule: Q04DX003 (ip), vehicle: saline
[25] = dose: 50.0 mg/kg/injection, schedule: Q01DX001 (ip), vehicle: saline

N#C/C(N)=C(\C#N)N=C1CCCCC1=O
T/C (dose: 100.0 mg/kg/injection, schedule: Q04DX002 (ip), vehicle: Klucel (hydroxypropylcellulose) (HPC)): 94 % of control
T/C (dose: 200.0 mg/kg/injection, schedule: Q04DX002 (ip), vehicle: Klucel (hydroxypropylcellulose) (HPC)): 91 % of control
T/C (dose: 400.0 mg/kg/injection, schedule: Q04DX002 (ip), vehicle: Klucel (hydroxypropylcellulose) (HPC)): 94 % of control

CC1(O)c2cccc3c2C2(O)c4c1cccc4C(C)(O)c1cccc(c12)C3(C)O (stereo not drawn)
T/C [1]: 106 % of control
T/C [2]: 103 % of control and 108 % of control
T/C [3]: 105 % of control
T/C [4]: 114 % of control and 110 % of control
T/C [5]: 95 % of control and 101 % of control

O=[N+]([O-])C(Br)(c1ccccc1)S(=O)(=O)Cc1ccccc1 (stereo not drawn)
T/C [6]: 95 % of control
T/C [7]: 100 % of control
T/C [8]: 101 % of control
T/C [9]: 95 % of control
T/C [10]: 102 % of control

CC1=CC(C)(C2(O)c3ccccc3-c3ccccc32)C=C(C)C1
T/C [2]: 98 % of control
T/C [4]: 95 % of control
T/C [5]: 95 % of control

O=C1OC(=O)C2C1C1C3C(=O)C4C5C(=O)C3C2C5C41 (stereo not drawn)
T/C (dose: 75.0 mg/kg/injection, schedule: Q04DX002 (ip), vehicle: Klucel (hydroxypropylcellulose) (HPC)): 97 % of control
T/C (dose: 150.0 mg/kg/injection, schedule: Q04DX002 (ip), vehicle: Klucel (hydroxypropylcellulose) (HPC)): 97 % of control
T/C (dose: 300.0 mg/kg/injection, schedule: Q04DX002 (ip), vehicle: Klucel (hydroxypropylcellulose) (HPC)): 97 % of control

C[N+](C)(C)/N=C/c1ccccc1
T/C (dose: 12.5 mg/kg/injection, schedule: Q01DX009 (ip), vehicle: Klucel (hydroxypropylcellulose) (HPC)): 97 % of control
T/C (dose: 25.0 mg/kg/injection, schedule: Q01DX009 (ip), vehicle: Klucel (hydroxypropylcellulose) (HPC)): 103 % of control
T/C [11]: 93 % of control and 96 % of control

O=C(O)c1cccc([N+](=O)[O-])c1I
T/C [1]: 100 % of control
T/C [3]: 101 % of control
T/C [12]: 97 % of control

COC(=O)Nc1ccc(C(C)=O)cc1
T/C (dose: 20.0 mg/kg/injection, schedule: Q01DX009 (ip), vehicle: saline with Tween-80): 95 % of control
T/C (dose: 40.0 mg/kg/injection, schedule: Q01DX009 (ip), vehicle: saline with Tween-80): 91 % of control
T/C (dose: 80.0 mg/kg/injection, schedule: Q01DX009 (ip), vehicle: saline with Tween-80): 93 % of control
T/C (dose: 160.0 mg/kg/injection, schedule: Q01DX009 (ip), vehicle: saline with Tween-80): 101 % of control
T/C (dose: 320.0 mg/kg/injection, schedule: Q01DX009 (ip), vehicle: saline with Tween-80): 90 % of control

NCCCCC(N)C(=O)NC(CCCN=C(N)N)C(=O)O (stereo not drawn) (H-Lys-Arg-OH; configuration not given here)
T/C (dose: 50.0 mg/kg/injection, schedule: Q04DX003 (ip), vehicle: water): 117 % of control
T/C (dose: 100.0 mg/kg/injection, schedule: Q01DX009 (ip), vehicle: water): 108 % of control
T/C (dose: 100.0 mg/kg/injection, schedule: Q04DX003 (ip), vehicle: water): 121 % of control
T/C (dose: 200.0 mg/kg/injection, schedule: Q01DX009 (ip), vehicle: water): 97 % of control
T/C (dose: 200.0 mg/kg/injection, schedule: Q04DX003 (ip), vehicle: water): 111 % of control
T/C (dose: 400.0 mg/kg/injection, schedule: Q04DX003 (ip), vehicle: water): 115 % of control

COC(=O)c1ccc(F)cc1
T/C [13]: 92 % of control
T/C [14]: 97 % of control
T/C [15]: 97 % of control
T/C [16]: 95 % of control

Nc1nc2c(ncn2-c2ccc(OCCCOc3ccc(S(=O)(=O)F)cc3)cc2)c(=O)[nH]1
T/C [17]: 94 % of control
T/C [18]: 91 % of control

O=c1cc(-c2ccccc2)oc2ccccc12
T/C [6]: 97 % of control
T/C [8]: 92 % of control
T/C (dose: 400.0 mg/kg/injection, schedule: Q01DX009 (ip), vehicle: Klucel (hydroxypropylcellulose) (HPC)): 108 % of control

CNC(=O)NCc1ccc(Cl)cc1
T/C [2]: 105 % of control
T/C [4]: 98 % of control
T/C [5]: 107 % of control

O=C(Nc1ccc(Cl)c(Cl)c1)NC(CO)(CO)CO
T/C [19]: 100 % of control
T/C [20]: 94 % of control
T/C [21]: 94 % of control

C[C@]12CC[C@@H]3c4ccc(O)cc4CC[C@H]3[C@@H]1CCC(=O)O2
T/C (dose: 100.0 mg/kg/injection, schedule: Q01DX009 (ip), vehicle: saline): 97 % of control
T/C [22]: 97 % of control
T/C (dose: 200.0 mg/kg/injection, schedule: Q01DX009 (ip), vehicle: saline): 95 % of control
T/C [23]: 90 % of control
T/C (dose: 400.0 mg/kg/injection, schedule: Q01DX009 (ip), vehicle: saline): 95 % of control
T/C [24]: 100 % of control

Cc1ccc(SCc2c(COc3ccc(Cl)cc3)sc3ccc(Cl)cc23)cc1
T/C [1]: 102 % of control
T/C [3]: 119 % of control
T/C [12]: 97 % of control

Cc1cc(C)c(C)c(OCC(=O)O)c1
T/C (dose: 75.0 mg/kg/injection, schedule: Q01DX001 (ip), vehicle: other): 97 % of control
T/C (dose: 150.0 mg/kg/injection, schedule: Q01DX001 (ip), vehicle: other): 97 % of control
T/C (dose: 300.0 mg/kg/injection, schedule: Q01DX001 (ip), vehicle: other): 95 % of control

NS(=O)(=O)c1ccc(Cl)c(Cl)c1
T/C [2]: 97 % of control
T/C [4]: 103 % of control
T/C [5]: 93 % of control

Nc1nc2nc(-c3ccccc3)[nH]c2c(=O)[nH]1
T/C [7]: 98 % of control
T/C [9]: 101 % of control
T/C [10]: 93 % of control

CCOC1=CCCCC1
T/C [25]: 101 % of control
T/C [19]: 103 % of control
T/C [20]: 103 % of control
T/C [21]: 101 % of control

O=C(O)c1cc(-c2ccccc2)cc(Br)c1O
T/C [14]: 93 % of control
T/C [15]: 95 % of control

CC1([N+](=O)[O-])COP(=O)(Nc2ccccc2)OC1 (stereo not drawn)
T/C [25]: 96 % of control
T/C [19]: 98 % of control
T/C [20]: 93 % of control
T/C [21]: 110 % of control

CCOc1ccc(N=Cc2ccc(OC(=O)c3ccccc3)c(OC)c2)cc1
T/C (dose: 100.0 mg/kg/injection, schedule: Q04DX002 (ip), vehicle: saline with Tween-80): 102 % of control
T/C (dose: 200.0 mg/kg/injection, schedule: Q04DX002 (ip), vehicle: saline with Tween-80): 95 % of control
T/C (dose: 400.0 mg/kg/injection, schedule: Q04DX002 (ip), vehicle: saline with Tween-80): 113 % of control

COC(=O)CCNS(=O)(=O)c1ccc(C)cc1
T/C [13]: 92 % of control
T/C [14]: 94 % of control
T/C [15]: 94 % of control
T/C [16]: 92 % of control

O=C(CSCc1ccccc1)c1ccccc1
T/C [2]: 90 % of control
T/C [4]: 90 % of control
T/C [5]: 100 % of control

NC1CCCc2ccccc2C1O (stereo not drawn)
T/C [19]: 102 % of control
T/C [20]: 104 % of control

Cc1n(CCBr)c([N+](=O)[O-])c[n+]1C1N=C(c2ccccc2)c2cc(Cl)ccc2N(C)C1=O (stereo not drawn)
T/C [11]: 89 % of control
T/C [6]: 89 % of control
T/C [8]: 86 % of control

C1CN1P1(N2CC2)=NP(N2CC2)(N2CC2)=NP(N2CC2)(N2CC2)=N1
T/C (dose: 10.0 mg/kg/injection, schedule: Q01DX009 (ip), vehicle: saline): 159 % of control
T/C (dose: 20.0 mg/kg/injection, schedule: Q01DX009 (ip), vehicle: saline): 104 % of control
T/C (dose: 75.0 mg/kg/injection, schedule: Q01DX001 (ip), vehicle: saline): 162 % of control

O=C(SCc1ccccc1)C(O)c1ccccc1 (stereo not drawn)
T/C [22]: 94 % of control
T/C [23]: 100 % of control
T/C [24]: 97 % of control

NC(=S)NNC(N)=S
T/C (dose: 50.0 mg/kg/injection, schedule: Q01DX001 (ip), vehicle: Klucel (hydroxypropylcellulose) (HPC)): 90 % of control
T/C [17]: 97 % of control
T/C [18]: 100 % of control
